Measurements reported in the CheMixHub viscosity set.
± gives the uncertainty stated by the source.

Assay: xn = mol fraction of the nth substance listed

COCCO + CC(C)=O
viscosity [mPa·s], 101.33 kPa
Details	293.15 K	298.15 K	303.15 K
x1 = 0.0508	0.373 ± 0.004	0.356 ± 0.004	0.342 ± 0.004
x1 = 0.1006	0.439 ± 0.004	0.416 ± 0.004	0.397 ± 0.004
x1 = 0.1509	0.507 ± 0.005	0.477 ± 0.005	0.453 ± 0.004
x1 = 0.2015	0.563 ± 0.005	0.527 ± 0.005	0.5 ± 0.005
x1 = 0.2496	0.613 ± 0.005	0.572 ± 0.005	0.541 ± 0.005
x1 = 0.2998	0.652 ± 0.006	0.607 ± 0.005	0.574 ± 0.005
x1 = 0.351	0.688 ± 0.006	0.64 ± 0.006	0.603 ± 0.005
x1 = 0.3995	0.726 ± 0.006	0.673 ± 0.006	0.632 ± 0.005
x1 = 0.4503	0.767 ± 0.006	0.709 ± 0.006	0.663 ± 0.006
x1 = 0.5006	0.818 ± 0.007	0.753 ± 0.006	0.7 ± 0.006
x1 = 0.5504	0.875 ± 0.007	0.804 ± 0.007	0.742 ± 0.006
x1 = 0.6007	0.941 ± 0.008	0.861 ± 0.007	0.79 ± 0.007
x1 = 0.6496	1.012 ± 0.008	0.923 ± 0.007	0.845 ± 0.007
x1 = 0.6998	1.09 ± 0.009	0.991 ± 0.008	0.905 ± 0.007
x1 = 0.7502	1.17 ± 0.009	1.062 ± 0.008	0.969 ± 0.008
x1 = 0.8004	1.248 ± 0.01	1.132 ± 0.009	1.033 ± 0.008
x1 = 0.8511	1.333 ± 0.01	1.209 ± 0.01	1.106 ± 0.009
x1 = 0.8999	1.419 ± 0.011	1.287 ± 0.01	1.179 ± 0.009
x1 = 0.9503	1.542 ± 0.012	1.398 ± 0.011	1.278 ± 0.01

CCCC(=O)O + C1CCCCC1
303.15 K, 101 kPa
Details	viscosity [mPa·s]
x2 = 0.101	1.196 ± 0.014
x2 = 0.1921	1.069 ± 0.013
x2 = 0.2875	0.9914 ± 0.012
x2 = 0.3938	0.9189 ± 0.011
x2 = 0.4993	0.867 ± 0.01
x2 = 0.591	0.8407 ± 0.0099
x2 = 0.6993	0.7948 ± 0.0094
x2 = 0.8074	0.7912 ± 0.0094
x2 = 0.9011	0.7924 ± 0.0094

CC(=O)OCC(C)C + Cc1ccc(C)cc1
viscosity [mPa·s], 101 kPa
Details	x1 = 0.1104	x1 = 0.1976	x1 = 0.2789	x1 = 0.376	x1 = 0.4687	x1 = 0.5742	x1 = 0.6833	x1 = 0.7765	x1 = 0.8703	x1 = 0.9481
303.15 K	0.569 ± 0.011	0.572 ± 0.011	0.577 ± 0.011	0.582 ± 0.011	0.588 ± 0.011	0.596 ± 0.011	0.605 ± 0.011	0.614 ± 0.011	0.622 ± 0.011	0.63 ± 0.011
313.15 K	0.511 ± 0.011	0.512 ± 0.011	0.514 ± 0.011	0.516 ± 0.011	0.519 ± 0.011	0.526 ± 0.011	0.536 ± 0.011	0.547 ± 0.011	0.558 ± 0.011	0.57 ± 0.011

CC(=O)OC(C)C + Cc1cccc(C)c1
viscosity [mPa·s], 101 kPa
Details	x1 = 0.0998	x1 = 0.212	x1 = 0.3176	x1 = 0.4048	x1 = 0.5079	x1 = 0.6118	x1 = 0.7201	x1 = 0.8193	x1 = 0.9305
303.15 K	0.544 ± 0.011	0.53 ± 0.011	0.518 ± 0.011	0.509 ± 0.011	0.499 ± 0.011	0.489 ± 0.011	0.481 ± 0.011	0.474 ± 0.011	0.466 ± 0.011
313.15 K	0.488 ± 0.011	0.475 ± 0.011	0.464 ± 0.011	0.456 ± 0.011	0.447 ± 0.011	0.438 ± 0.011	0.43 ± 0.011	0.423 ± 0.011	0.417 ± 0.01

OCC(O)C(O)CO (stereo not given) + O
viscosity [mPa·s], 101 kPa
Details	293.15 K	298.15 K	303.15 K	308.15 K	313.15 K	318.15 K	323.15 K
x1 = 0.005	1.176 ± 0.011	1.05 ± 0.01	0.915 ± 0.009	0.79 ± 0.008	–	0.649 ± 0.006	0.62 ± 0.006
x1 = 0.01	–	1.152 ± 0.011	1.021 ± 0.01	0.912 ± 0.009	0.821 ± 0.008	0.744 ± 0.007	0.679 ± 0.007
x1 = 0.015	1.42 ± 0.013	1.25 ± 0.012	1.109 ± 0.01	0.968 ± 0.009	0.891 ± 0.009	0.808 ± 0.008	0.736 ± 0.007
x1 = 0.02	1.53 ± 0.014	1.327 ± 0.012	1.191 ± 0.011	1.053 ± 0.01	0.965 ± 0.009	0.86 ± 0.008	0.813 ± 0.008
